Measured values reported in patent publication US20230293430A1, “FORMULATIONS INCLUDING 5-[3-(3-HYDROXYPHENOXY)AZETIDIN-1-YL]-5-METHYL-2,2-DIPHENYLHEXANAMIDE” (Mylan Pharma UK Limited, priority 2020, published 2023).

How the values were obtained:
[1] = Equivalence of TIR and FPM between products (ratio of geometric means, NGI); format: physicochemical
From the text: Aerosolization performance information was obtained for the same batches of MGR002 and MGR003 as were used in obtaining emitted data. FIG. 3 illustrates the aerosolization performance as measured by fine particle mass (FPM) obtained from 6 devices from each MGR002 and MGR003 product. FIG. 4 and Table 37 below present the results and equivalence criteria, respectively for carboxamide hydrochloride of formula II. The results in Table 37 are listed in terms of total impactor recovery (TIR) and fine particle mass (FPM) for MGR001, MGR002 and MGR003, carboxamide compound, salmeterol and fluticasone propionate.
The mean particle mass (FPM) and mean total impactor recovery (TIR) from a next generation impactor (NGI) for each batch were equivalent, based on the fact that the upper/lower 90% confidence interval of the ratio of the geometric mean, and fell between 0.90 and 1.11. […] The fluticasone propionate and salmeterol xinafoate components of the MGR003 drug product also met the same performance targets as the MGR001 250/50 drug product.

[2] = Aerosolization performance (fine particle mass / fine particle fraction, Next Generation Impactor); format: physicochemical; conditions: 7% w/w blend strength with 60 μm coarse lactose LH200
Procedure: The expression “respirable fraction” refers to an index of the percentage of active particles which would reach the lungs in a patient. The respirable fraction is evaluated using a suitable in vitro apparatus such as Andersen Cascade Impactor (ACI), Multi Stage Liquid Impinger (MSLI) or Next Generation Impactor (NGI), according to procedures reported in common Pharmacopoeias, in particular in the European Pharmacopeia (Eur. Ph.) 7.3, 7th Edition, which is incorporated herein by reference in its entirety.
In this example, a dry powder blend formulation of carboxamide hydrochloride and lactose monohydrate was obtained and utilized to provide the MGR002 and MGR003 products. To achieve a FPM of 128 μg of MGR002, it has been determined that a 7% w/w carboxamide hydrochloride dry powder blend was required. The formulation included coarse lactose only (LH200, D50 of 60 μm), with a 5% w/w API overage to account for losses during the blending process. […]
Aerosolization performance information was obtained for the same batches of MGR002 and MGR003 as were used in obtaining emitted data. FIG. 3 illustrates the aerosolization performance as measured by fine particle mass (FPM) obtained from 6 devices from each MGR002 and MGR003 product. […]

| FPM: ratio of geometric means (MGR002 divided by MGR003) ([1]; fine particle mass) | TIR: ratio of geometric means (MGR002 divided by MGR003) ([1]; total impactor recovery) | fine particle mass (FPM) achieved [2] [µg] | FPM: ratio of geometric means (MGR001 divided by MGR003) ([1]; fine particle mass) | TIR: ratio of geometric means (MGR001 divided by MGR003) ([1]; total impactor recovery) | Compound |
| --- | --- | --- | --- | --- | --- |
| 0.95 | 0.97 | 138 | – | – | CC(C)(CCC(C(N)=O)(c1ccccc1)c1ccccc1)N1CC(Oc2cccc(O)c2)C1.Cl [Carboxamide Hydrochloride, 5-[3-(3-Hydroxyphenoxy)azetidin-1-yl]-5-methyl-2,2-diphenylhexanamide hydrochloride] |
| – | – | – | 0.99 | 0.96 | CCC(=O)O[C@]1(C(=O)SCF)[C@H](C)C[C@H]2[C@@H]3C[C@H](F)C4=CC(=O)C=C[C@]4(C)[C@@]3(F)[C@@H](O)C[C@@]21C [Fluticasone propionate, fluticasone propionate] |
| – | – | – | 1.01 | 0.97 | OCc1cc(C(O)CNCCCCCCOCCCCc2ccccc2)ccc1O (stereo not shown) [Salmeterol, salmeterol xinafoate] |
